Reference: PMC11819603, “Development of a reliable, sensitive, and convenient assay for the discovery of new eIF5A hypusination inhibitors” (PLOS ONE, 2025)

What was measured:
Type in all cases: biochemical
DHPS [1] = biological target: T1, DHPS (Homo sapiens, UniProt P49366); experiment: Hyp'Assay: cell-free eIF5A hypusination in 96-well plates (recombinant eIF5A, DHPS, DOHH; anti-hypusine antibody Hpu24), substance present in the DHPS step; settings: for hypusination signal, Mean (quantification from Figure 3B): control 100,0
T1 construct: host or cells: E. coli BL21 (DE3)
T1 sequence (P49366 1-369): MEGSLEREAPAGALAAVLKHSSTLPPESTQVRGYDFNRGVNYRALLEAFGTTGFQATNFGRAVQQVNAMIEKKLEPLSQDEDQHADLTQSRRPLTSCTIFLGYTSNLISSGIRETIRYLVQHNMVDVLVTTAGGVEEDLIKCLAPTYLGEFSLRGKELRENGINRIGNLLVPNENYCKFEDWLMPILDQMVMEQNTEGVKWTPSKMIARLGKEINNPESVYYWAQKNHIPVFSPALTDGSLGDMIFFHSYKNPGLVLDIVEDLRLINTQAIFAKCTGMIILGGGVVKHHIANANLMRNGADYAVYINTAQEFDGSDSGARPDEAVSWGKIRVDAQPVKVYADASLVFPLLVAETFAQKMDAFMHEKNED
Procedure: The principle of the Hyp’Assay (Fig 2A) is to perform eIF5A hypusination reaction in 96-well plates, allow eIF5A to adsorb to the plate, incubate with an anti-hypusine antibody and a secondary antibody conjugated to HRP and reveal hypusination using TMB as a substrate.
(§1) […] Then 10 μL containing 1 μg of DOHH with 10 μM Fe^2+ (H8FeN2O8S2^. 6H2O) were added. After 1 h proteins were analyzed by Western Blot using antibodies toward DHPS, DOHH, Hypusine, and eIF5A.
(§2) The cell-free reaction described in 4.4 is performed in triplicates in a 96-wells plate (MaxiSorp, ThermoFisher) in the presence of 3 μg of eIF5A, 2 μg of DHPS, and 2 μg of DOHH by well. The reaction product, hypusinated eIF5A, is adsorbed onto the plate overnight at 4°C. The plate is washed (100 μL/well) thrice with PBS-T (PBS– 0.05% Tween20), then saturated with 1% non-fat dry milk in PBS-T for 2 h at room temperature. The plate is washed thrice with PBS-T and incubated overnight at 4°C with the anti-hypusine antibody (1:2000 in saturation buffer, 50 μL/well). The next day and after 5 washes with PBS-T, HRP-coupled anti-rabbit secondary antibody diluted 1:5000 in saturation buffer (50 μL/well) is added for 2 h at room temperature.

DOHH = biological target: T2, DOHH (Homo sapiens, UniProt Q9BU89); experiment: Hyp'Assay, substance added after the deoxyhypusination reaction (DOHH step); settings: for hypusination signal, Mean (quantification from Figure 3C): control 100,0
T2 construct: pelB leader (N); host or cells: E. coli BL21 (DE3)
T2 sequence (Q9BU89 1-302): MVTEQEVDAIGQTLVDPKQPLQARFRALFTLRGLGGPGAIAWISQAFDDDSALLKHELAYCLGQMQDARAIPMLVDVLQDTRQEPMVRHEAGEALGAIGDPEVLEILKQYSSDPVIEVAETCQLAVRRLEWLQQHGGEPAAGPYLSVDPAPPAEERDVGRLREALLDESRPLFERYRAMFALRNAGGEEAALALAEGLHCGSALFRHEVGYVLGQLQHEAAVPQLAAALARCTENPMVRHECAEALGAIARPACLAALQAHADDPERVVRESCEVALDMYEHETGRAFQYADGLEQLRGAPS
Procedure: We then tested the ability of DOHH inhibitors to inhibit eIF5A hypusination using the Hyp’Assay. During the Hyp’Assay, DOHH inhibitors were added after the deoxyhypusination reaction.
To address this issue, we compared the ability of GC7 to inhibit DHPS or DOHH by adding GC7 during the first step of the Hyp’Assay; when DHPS mediates the deoxyhypusination reaction (Fig 2A), or only during the second step, when DOHH hydroxylate deoxyhypusinated eIF5A. […] When finding new hypusination inhibitors adding them during the first or the second step of the Hyp’Assay will allow us to determine if the inhibition affects DHPS or DOHH. Another way to discriminate between DHPS or DOHH inhibitors would be to use Hpu98, an antibody that recognized both hypusinated and deoxyhypusinated eIF5A, instead of Hpu24, which is specific for hypusinated eIF5A [18]. […] We performed a new Hyp’Assay by omitting DOHH in the reaction mix and using the Hpu98 antibody. First, we performed a dose response experiment with spermidine at pH: 8.0 and 9.0 (Fig 3E). […] We also tested the ability of GC7 (Fig 3F) and CPX or EDTA (Fig 3G) to inhibit DHPS.
as §1, §2

DHPS [2] = biological target: T1, DHPS; experiment: Hyp'Assay without DOHH: deoxyhypusination of eIF5A revealed with Hpu98 antibody; settings: 5 μM spermidine; CTRL 100,0; inhibitor concentration not given
From the text: To address this issue, we compared the ability of GC7 to inhibit DHPS or DOHH by adding GC7 during the first step of the Hyp’Assay; when DHPS mediates the deoxyhypusination reaction (Fig 2A), or only during the second step, when DOHH hydroxylate deoxyhypusinated eIF5A. […] This confirms the specificity of GC7 towards DHPS. When finding new hypusination inhibitors adding them during the first or the second step of the Hyp’Assay will allow us to determine if the inhibition affects DHPS or DOHH. Another way to discriminate between DHPS or DOHH inhibitors would be to use Hpu98, an antibody that recognized both hypusinated and deoxyhypusinated eIF5A, instead of Hpu24, which is specific for hypusinated eIF5A [18]. […] We performed a new Hyp’Assay by omitting DOHH in the reaction mix and using the Hpu98 antibody. First, we performed a dose response experiment with spermidine at pH: 8.0 and 9.0 (Fig 3E). The Hyp’Assay allows the detection of deoxyhypusinated eIF5A in a spermidine-dependent manner. Under these conditions, deoxyhypusination was equally efficient at both pH tested. […] We also tested the ability of GC7 (Fig 3F) and CPX or EDTA (Fig 3G) to inhibit DHPS. […] This provided us with another method to distinguish between DHPS and DOHH inhibitors.
as §2

[3] = concentration 1 (no unit on page; Fig 3C dose-response 0 to 100 μM)
[4] = concentration 10 (no unit on page; Fig 3C dose-response 0 to 100 μM)
[5] = concentration 100 (no unit on page; Fig 3C dose-response 0 to 100 μM)

Q: Which decrease in hypusination (DHPS [1]; at 100 μM) does the source give for `CCNCCCNCCCNCCCNCC` [BENSPM, N1,N11-diethylnorspermine] here?
A: The decrease in hypusination was 12%.

Q: And the inhibition of hypusination (DHPS [1]; at 1 mM)?
A: Its inhibition of hypusination is 43%.

Q: What about the “hypusination signal, Mean (quantification from Figure 3B)” value (DHPS [1]; concentration 1 (no unit on page; Fig 3B dose-response 0 to 1 mM)) of the same compound?
A: Its value is 97,3.

Q: What about the “hypusination signal, Mean (quantification from Figure 3B)” value (DHPS [1]; concentration 10 (no unit on page; Fig 3B dose-response 0 to 1 mM)) of the same compound?
A: Its value is 101,9.

Q: And the “hypusination signal, Mean (quantification from Figure 3B)” value (DHPS [1]; concentration 100 (no unit on page; Fig 3B dose-response 0 to 1 mM))?
A: The value was 88,5.

Q: What about the “hypusination signal, Mean (quantification from Figure 3B)” value (DHPS [1]; concentration 1000 (no unit on page; Fig 3B dose-response 0 to 1 mM)) of the same compound?
A: The value was 42,9.

Q: Which “hypusination signal, Mean (quantification from Figure 3C)” value (DOHH; [3]) does the source give for `Cc1cc(C2CCCCC2)n(O)c(=O)c1` [CPX, ciclopirox] here?
A: The value was 97,78.

Q: What about the “hypusination signal, Mean (quantification from Figure 3C)” value (DOHH; [4]) of the same compound?
A: Its value is 85,18.

Q: What about the “hypusination signal, Mean (quantification from Figure 3C)” value (DOHH; [5]) of the same compound?
A: The value was 55,02.

Q: What about the maximal inhibition (DOHH; dose-response 0 to 100 μM) of the same compound?
A: Its maximal inhibition is 50%.

Q: And the “Relative deoxyhypusination of eIF5A, Mean (quantification from Figure 3F, 3G)” value (DHPS [2])?
A: Its value is 101,2 a.u.

Q: How did the “hypusination signal, Mean (quantification from Figure 3C)” value (DOHH; [3]) turn out when `CC(=O)N(O)CCCCCNC(=O)CCC(=O)N(O)CCCCCNC(=O)CCC(=O)N(O)CCCCCN` [DFX, deferoxamine] was run?
A: The value was 28,29.

Q: What about the “hypusination signal, Mean (quantification from Figure 3C)” value (DOHH; [4]) of the same compound?
A: Its value is 58,42.

Q: And the “hypusination signal, Mean (quantification from Figure 3C)” value (DOHH; [5])?
A: Its value is 34,21.

Q: Which results are given for `C[S+](C)[O-]` [DMSO]?
A: inhibition of hypusination (DHPS [1]; 10% DMSO of the total reaction mixture): 33%; effect on hypusination of eIF5A (DHPS [1]; standard concentrations of DMSO (less than 10%)): not affected

Q: For `O=C(O)CN(CCN(CC(=O)O)CC(=O)O)CC(=O)O` [EDTA], which maximal inhibition (DOHH; at 100 μM EDTA) is on record?
A: The maximal inhibition was 80%.

Q: And the “Relative deoxyhypusination of eIF5A, Mean (quantification from Figure 3F, 3G)” value (DHPS [2])?
A: Its value is 97,63 a.u.
